# Molecular target: T1, Pol theta (1-899) (Homo sapiens, UniProt O75417)
# T1 construct: Pol theta (1-899) (5 nM) in assay buffer
# Experiment: Pol theta ATPase activity, NADH oxidation-coupled enzymatic assay (ATPase NADH coupling: Standard Screening: hPolQ)
# Assay type: biochemical
# Conditions: Pol theta (1-899) 5 nM, NADH oxidation-coupled ATPase assay; compounds of Table 3
# Procedure: The ability of the compounds of Formula (I) or Table 1 to inhibit ATPase activity of Pol theta (1-899) was determined using the assay described below. Pol Theta ATPase activity was determined by measuring the rate of ATP turn over in a NADH oxidation-coupled enzymatic assay. 10-point dilution series of compounds were used in a 384 well format for the inhibition assays. Pol theta (1-899) (5 nM) in assay buffer (20 mM Tris HCl (pH 7.80), 80 mM KCl, 10 mM MgCl2, 1 mM DTT, 0.01% BSA, 0.01% Tween, 5% glycerol) was transferred to the test wells (20 μL), except the low control wells (20 μL of assay buffer was added to the low control wells). The plate was then incubated at room temperature for 15 min. An equal volume (20 μL) of 100 μM ATP, 300 nM […] (single-stranded DNA (ssDNA) containing 50 thymine bases), 300 μM NADH, 6 mM PEP, 10 U/mL lactate dehydrogenase and 20 U/mL pyruvate kinase in assay buffer was added to all the test wells. The plate was then centrifuged at 1000 rpm for 1 min. The reaction was monitored for 60 min by measuring absorbance (λ=340 nm) in a Tecan Spark multimode plate reader every minute. The high control (DMSO with enzyme) with low absorbance intensity represents no inhibition of ATPase reaction while the low control (DMSO with buffer) with high absorbance intensity represents full inhibition of ATPase activity. Slope of the reaction progress curves were used to calculate the rate of ATP hydrolysis. The rates were used to determine the percent inhibition using a four-parameter inhibition model to generate IC50, Hill slope and max inhibition.
# T1 sequence (O75417 1-899): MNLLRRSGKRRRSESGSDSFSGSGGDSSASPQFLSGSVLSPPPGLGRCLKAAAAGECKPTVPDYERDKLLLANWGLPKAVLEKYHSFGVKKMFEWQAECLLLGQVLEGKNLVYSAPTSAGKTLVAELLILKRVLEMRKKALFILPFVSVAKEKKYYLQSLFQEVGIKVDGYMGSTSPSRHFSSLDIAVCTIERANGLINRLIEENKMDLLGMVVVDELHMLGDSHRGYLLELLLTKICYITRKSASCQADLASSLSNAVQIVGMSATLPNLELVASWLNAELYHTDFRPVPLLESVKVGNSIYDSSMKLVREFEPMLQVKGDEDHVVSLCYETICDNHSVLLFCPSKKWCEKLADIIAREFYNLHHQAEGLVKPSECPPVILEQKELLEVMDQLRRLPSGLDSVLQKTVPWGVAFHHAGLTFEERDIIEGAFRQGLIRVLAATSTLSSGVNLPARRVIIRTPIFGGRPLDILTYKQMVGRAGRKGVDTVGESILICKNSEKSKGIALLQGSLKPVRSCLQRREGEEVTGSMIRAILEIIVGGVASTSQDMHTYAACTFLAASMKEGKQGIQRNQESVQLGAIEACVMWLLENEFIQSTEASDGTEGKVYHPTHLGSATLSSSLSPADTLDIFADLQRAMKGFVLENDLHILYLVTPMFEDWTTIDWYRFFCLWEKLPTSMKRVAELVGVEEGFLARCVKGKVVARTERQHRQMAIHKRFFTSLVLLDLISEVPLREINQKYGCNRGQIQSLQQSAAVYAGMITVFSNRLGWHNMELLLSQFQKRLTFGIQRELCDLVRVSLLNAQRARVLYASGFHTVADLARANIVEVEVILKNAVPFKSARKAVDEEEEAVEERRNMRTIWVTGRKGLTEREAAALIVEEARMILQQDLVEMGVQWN
row,SMILES,IC50 [nM]
1,"COc1cnc(Cl)cc1-c1cc(C)ncc1C(=O)Nc1nnc(O[C@@H]2C[C@H](F)CN(C3COC3)C2)s1 (single isomer, unassigned) [Example 260]",≤ 200
2,"COc1nnc(NC(=O)c2cnc(C)cc2-c2cc[nH]c(=O)c2)s1 [Example 364, N-(5-methoxy-1,3,4-thiadiazol-2-yl)-6-methyl-2′-oxo-1′,2′-dihydro-[4,4′-bipyridine]-3-carboxamide]",1000 to 10000
3,"COc1nnc(NC(=O)c2cnc(C)cc2-c2cc(C(F)(F)F)cc(C(F)(F)F)c2)s1 [Example 333, 4-[3,5-bis(trifluoromethyl)phenyl]-N-(5-methoxy-1,3,4-thiadiazol-2-yl)-6-methylpyridine-3-carboxamide]",1000 to 10000
4,"COc1nnc(NC(=O)c2cnc(C)cc2-c2cccc(C)c2F)s1 [Example 414, 4-(2-fluoro-3-methylphenyl)-N-(5-methoxy-1,3,4-thiadiazol-2-yl)-6-methylpyridine-3-carboxamide]",≤ 200
5,"COc1ccc(-c2cc(C)ncc2C(=O)Nc2nnc(OC)s2)c(OC)n1 [Example 435, 2,6-dimethoxy-N-(5-methoxy-1,3,4-thiadiazol-2-yl)-6′-methyl-[3,4′-bipyridine]-3′-carboxamide]",200 to 500
6,"COc1nnc(NC(=O)c2cnc(C)cc2-c2cccnc2)s1 [Example 331, N-(5-methoxy-1,3,4-thiadiazol-2-yl)-6′-methyl-[3,4′-bipyridine]-3′-carboxamide]",1000 to 10000
7,"COc1nnc(NC(=O)c2cnc(C)cc2-c2cnn(Cc3ccccc3)c2)s1 [Example 468, 4-(1-benzyl-1H-pyrazol-4-yl)-N-(5-methoxy-1,3,4-thiadiazol-2-yl)-6-methylnicotinamide]",1000 to 10000
8,"COc1nnc(NC(=O)c2cnc(C)cc2-c2ccc(C)c(C)c2)s1 [Example 381, 4-(3,4-dimethylphenyl)-N-(5-methoxy-1,3,4-thiadiazol-2-yl)-6-methylpyridine-3-carboxamide]",1000 to 10000
9,"COc1cnc(Br)cc1-c1cc(C)ncc1C(=O)Nc1nnc(O[C@H]2CC[C@@H](CO)CC2)s1 [Example 268, 2′-bromo-N-(5-(((1s,4s)-4-(hydroxymethyl)cyclohexyl)oxy)-1,3,4-thiadiazol-2-yl)-5′-methoxy-6-methyl-[4,4′-bipyridine]-3-carboxamide]",≤ 200
10,"COc1cc(C)cc(-c2cc(C)ncc2C(=O)Nc2nnc(OC)s2)c1 [Example 422, N-(5-methoxy-1,3,4-thiadiazol-2-yl)-4-(3-methoxy-5-methylphenyl)-6-methylpyridine-3-carboxamide]",500 to 1000
11,"COc1nnc(NC(=O)c2cnc(C)cc2-c2cc(C)c([S@@+](C)[O-])cc2OC)s1 (single isomer, unassigned) [Example 308]",1000 to 10000
12,"COc1nnc(NC(=O)c2cnc(C)cc2-c2ccc(C(C)(C)C)cc2)s1 [Example 356, 4-(4-(tert-butyl)phenyl)-N-(5-methoxy-1,3,4-thiadiazol-2-yl)-6-methylnicotinamide]",1000 to 10000
13,"COc1nnc(NC(=O)c2cnc(C)cc2-c2cccc3ncccc23)s1 [Example 485, N-(5-methoxy-1,3,4-thiadiazol-2-yl)-6-methyl-4-(quinolin-5-yl)nicotinamide]",200 to 500
14,"COc1nnc(NC(=O)c2cnc(C)cc2-c2cnc3ccccc3c2)s1 [Example 394, N-(5-methoxy-1,3,4-thiadiazol-2-yl)-6-methyl-4-(quinolin-3-yl)pyridine-3-carboxamide]",1000 to 10000
15,"COc1nnc(NC(=O)c2cnc(C)cc2-c2cc(C)c([S@+](C)[O-])cc2OC)s1 (single isomer, unassigned) [Example 307]",200 to 500
16,"COc1cnc(C)cc1-c1cc(C)ncc1C(=O)Nc1nnc(OC(C)COCC(F)(F)F)s1 (centres unmarked) [Example 241, 5′-methoxy-2′,6-dimethyl-N-(5-((1-(2,2,2-trifluoroethoxy)propan-2-yl)oxy)-1,3,4-thiadiazol-2-yl)-[4,4′-bipyridine]-3-carboxamide]",≤ 200
17,"COc1nnc(NC(=O)c2cnc(C)cc2-c2cn(C)c3ccccc23)s1 [Example 464, N-(5-methoxy-1,3,4-thiadiazol-2-yl)-6-methyl-4-(1-methyl-1H-indol-3-yl)pyridine-3-carboxamide]",1000 to 10000

# Same assay, conditions: Table 4; Pol theta (1-899) 5 nM, ATP, dT50 ssDNA
row,SMILES,IC50 [nM]
1,"COc1nnc(NC(=O)c2cnc(C)cc2-c2ccnc(Cl)c2)s1 [Example 75, 2′-chloro-N-(5-methoxy-1,3,4-thiadiazol-2-yl)-6-methyl-(4,4′-bipyridine)-3-carboxamide]",≤ 200
2,"COc1nnc(NC(=O)c2cnc(C)cc2-c2cc(N)ncc2OC)s1 [Example 73, 2′-amino-5′-methoxy-N-(5-methoxy-1,3,4-thiadiazol-2-yl)-6-methyl-(4,4′-bipyridine)-3-carboxamide]",500 to 1000
3,"COc1cnc(Cl)cc1-c1cc(C)ncc1C(=O)Nc1nnc(O[C@H]2CCO[C@H]2C)s1 (single isomer, unassigned) [Example 76, 2′-chloro-5′-methoxy-6-methyl-N-(5-(((2r,3r)-2-methyltetrahydrofuran-3-yl)oxy)-1,3,4-thiadiazol-2-yl)-(4,4′-bipyridine)-3-carboxamide]",≤ 200
4,"COc1cnc(Cl)c(F)c1-c1cc(C)ncc1C(=O)Nc1nnc(OC2COC2)s1 [Example 60, 2′-chloro-3′-fluoro-5′-methoxy-6-methyl-N-(5-(oxetan-3-yloxy)-1,3,4-thiadiazol-2-yl)-(4,4′-bipyridine)-3-carboxamide]",≤ 200
5,"COc1cnc(Cl)cc1-c1cc(C)ncc1C(=O)Nc1nnc(OCC(C)(C)O)s1 [Example 14, 2′-chloro-N-(5-(2-hydroxy-2-methylpropoxy)-1,3,4-thiadiazol-2-yl)-5′-methoxy-6-methyl-(4,4′-bipyridine)-3-carboxamide]",≤ 200

# Same assay, conditions: Table 5; Pol theta (1-899) 5 nM, ATP, dT50 ssDNA
row,SMILES,IC50 [nM]
1,"COc1cnc(Cl)cc1-c1cc(C)ncc1C(=O)Nc1nnc(O[C@@H]2CCC[C@](C)(O)C2)s1 (single isomer, unassigned) [Example 180]",200 to 500
2,"COc1cnc(Cl)cc1-c1cc(C)ncc1C(=O)Nc1nnc(O[C@H]2C[C@H](O)C2(C)C)s1 (single isomer, unassigned) [Example 184, 2′-chloro-N-(5-((1r,3r)-3-hydroxy-2,2-dimethylcyclobutoxy)-1,3,4-thiadiazol-2-yl)-5′-methoxy-6-methyl-(4,4′-bipyridine)-3-carboxamide]",≤ 200
3,"COc1cnc(Cl)c(F)c1-c1cc(C)ncc1C(=O)Nc1nnc(O[C@H]2C[C@H](OC)C2)s1 (single isomer, unassigned) [Example 151, 2′-chloro-3′-fluoro-5′-methoxy-N-(5-((1r,3r)-3-methoxycyclobutoxy)-1,3,4-thiadiazol-2-yl)-6-methyl-(4,4′-bipyridine)-3-carboxamide]",≤ 200
4,"COc1cnc(Cl)cc1-c1cc(C)ncc1C(=O)Nc1nnc(OC2CCC3(CCCO3)CC2)s1 (single isomer, unassigned) [Example 174, N-(5-(((5r,8s)-1-oxaspiro(4.5)decan-8-yl)oxy)-1,3,4-thiadiazol-2-yl)-2′-chloro-5′-methoxy-6-methyl-(4,4′-bipyridine)-3-carboxamide]",≤ 200
5,"COc1cnc(Cl)cc1-c1cc(C)ncc1C(=O)Nc1nnc(O[C@H]2C[C@@H](OC)C2)s1 (single isomer, unassigned) [Example 132, 2′-chloro-5′-methoxy-N-(5-((1s,3s)-3-methoxycyclobutoxy)-1,3,4-thiadiazol-2-yl)-6-methyl-(4,4′-bipyridine)-3-carboxamide]",≤ 200
6,"COc1cnc(Cl)c(F)c1-c1cc(C)ncc1C(=O)Nc1nnc(O[C@H]2CC[C@](C)(O)CC2)s1 (single isomer, unassigned) [Example 172, 2′-chloro-3′-fluoro-N-(5-(((1r,4r)-4-hydroxy-4-methylcyclohexyl)oxy)-1,3,4-thiadiazol-2-yl)-5′-methoxy-6-methyl-(4,4′-bipyridine)-3-carboxamide]",≤ 200
7,"COc1cnc(Cl)cc1-c1cc(C)ncc1C(=O)Nc1nnc(O[C@H]2CCC[C@@H](O)C2)s1 (single isomer, unassigned) [Example 159]",≤ 200
8,"COc1cnc(Cl)c(F)c1-c1cc(C)ncc1C(=O)Nc1nnc(O[C@H]2CC[C@@H](OC)CC2)s1 (single isomer, unassigned) [Example 152, 2′-chloro-3′-fluoro-5′-methoxy-N-(5-(((1s,4s)-4-methoxycyclohexyl)oxy)-1,3,4-thiadiazol-2-yl)-6-methyl-(4,4′-bipyridine)-3-carboxamide]",≤ 200
9,"COc1cnc(Cl)c(F)c1-c1cc(C)ncc1C(=O)Nc1nnc(O[C@H]2CC[C@H](O)C2)s1 (single isomer, unassigned) [Example 197]",≤ 200

# Same assay, conditions: Table 5; values given as bound; Pol theta (1-899) 5 nM, ATP, dT50 ssDNA
row,SMILES,IC50 [nM]
1,"COc1nnc(NC(=O)c2nn(C)cc2-c2cc(Cl)ncc2OC)s1 [Example 107, 4-(2-chloro-5-methoxypyridin-4-yl)-N-(5-methoxy-1,3,4-thiadiazol-2-yl)-1-methyl-1H-pyrazole-3-carboxamide]",> 10000
